Reference: patent publication US10774064B2 (Cadent Therapeutics, Inc., priority 2016, dated 2020)

What follows are molecules tested against T1, small-conductance Ca2+-activated K+ channels (SK channels, subtype 2) (Homo sapiens, UniProt Q9H2S1) (assay: whole-cell patch-clamp of ionic current through SK2 channels in HEK293 cells (SC100)). Conditions: concentration that increases the basal current by 100%; HEK293 cells expressing SK2 channels.
T1 construct: expressed in transfected cells; host or cells: HEK293
Assay type: cell-based
Method in brief: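 SC100, the concentration doubling basal current (a 100% increase), was taken from SK2 currents recorded by whole-cell patch-clamp in SK2-expressing HEK293 cells.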

SC100	Structure (SMILES)
++ (++ means 200 nM-1000 nM)	Cc1cc(NC2CCC(F)(F)CC2)nc(-c2nc(C(F)F)cs2)n1 [Compound 277, N-(4,4-difluorocyclohexyl)-2-(4-(difluoromethyl)thiazol-2-yl)-6-methylpyrimidin-4-amine]
+ (+ means >1 uM)	Cc1cc(C)n(-c2nc(N[C@H]3CCCC(F)(F)C3)cc([C@H](C)O)n2)n1 [Compound 355, (−)-1-(6-(((S)-3,3-difluorocyclohexyl)amino)-2-(3,5-dimethyl-1H-pyrazol-1-yl)pyrimidin-4-yl)ethan-1-ol]
++ (++ means 200 nM-1000 nM)	Cc1cc(C)n(-c2nc(NC3CCC(F)(F)CC3)cc(N3CC(C)OC(C)C3)n2)n1 (centres unmarked) [Compound 190, N-(4,4-difluorocyclohexyl)-2-(3,5-dimethyl-1H-pyrazol-1-yl)-6-(2,6-dimethylmorpholino)pyrimidin-4-amine]
++ (++ means 200 nM-1000 nM)	Cc1cn(-c2nc(NC3CCC(F)(F)CC3)cc(OC3CN(C(=O)C(C)(C)C)C3)n2)nc1CF [Compound 309, 1-(3-((6-((4,4-difluorocyclohexyl)amino)-2-(3-(fluoromethyl)-4-methyl-1H-pyrazol-1-yl)pyrimidin-4-yl)oxy)azetidin-1-yl)-2,2-dimethylpropan-1-one]
+ (+ means >1 uM)	Cc1cc(C)n(-c2nc(CO)cc(NC3CCCC(F)(F)C3)n2)n1 (centres unmarked) [Compound 357, (6-((3,3-difluorocyclohexyl)amino)-2-(3,5-dimethyl-1H-pyrazol-1-yl)pyrimidin-4-yl)methanol]
++ (++ means 200 nM-1000 nM)	CCc1ccn(-c2nc(C)cc(NC3CCC(F)(F)CC3)n2)n1 [Compound 197, N-(4,4-difluorocyclohexyl)-2-(3-ethyl-1H-pyrazol-1-yl)-6-methylpyrimidin-4-amine]
++ (++ means 200 nM-1000 nM)	Cc1cc(C)n(-c2cc(CF)cc(NC3CCC(F)(F)CC3)n2)n1 [Compound 229, N-(4,4-difluorocyclohexyl)-6-(3,5-dimethyl-1H-pyrazol-1-yl)-4-(fluoromethyl)pyridin-2-amine]

Same assay, conditions: whole-cell patch-clamp, HEK293 cells expressing SK2 channels; concentration that increases the basal current by 100%

Structure (SMILES)	SC100 (μM)
CC1=NN(c2nc(NC3CCC(F)(F)CC3)cc(N3CCOCC3)n2)CC1 [IN11196-041-P1, N-(4,4-difluorocyclohexyl)-2-(3-methyl-4,5-dihydro-1H-pyrazol-1-yl)-6-morpholinopyrimidin-4-amine]	+ (+ means >1 uM)
Cc1ccn(-c2nc(NC3CCC(F)(F)CC3)cc(S(C)(=O)=O)[n+]2[O-])n1 [IN11059-071-P1]	+ (+ means >1 uM)
Cc1ccn(-c2cc(N3CCOCC3)cc([C@H](O)c3ccc(F)cc3)n2)n1 [NSSy6514, (R)-(4-fluorophenyl)(6-(3-methyl-1H-pyrazol-1-yl)-4-morpholinopyridin-2-yl)methanol]	+ (+ means >1 uM)
Cc1ccn(-c2cc(CC#N)nc(NC3CCC(F)(F)CC3)n2)n1 [NSSy6800, 2-(2-((4,4-difluorocyclohexyl)amino)-6-(3-methyl-1H-pyrazol-1-yl)pyrimidin-4-yl)acetonitrile]	++ (++ means 200 nM-1000 nM)
COC(=O)N1CC(Oc2cc(NC34CC5CC(CC(C5)C3)C4)nc(-n3ccc(C)n3)n2)C1 [NSSy6097]	+++ (+++ means <200 nM)
Cc1csc(-c2nc(NC3CCC(F)(F)CC3)cc(OCc3cnco3)n2)n1 [IN11059-047-P1]	+++ (+++ means <200 nM)
Cc1csc(-c2nc(NC3CCCCC3=O)cc(N3CCOCC3)n2)n1 (centres unmarked) [IN11140-065-P1, 2-((2-(4-methylthiazol-2-yl)-6-morpholinopyrimidin-4-yl)amino)cyclohexan-1-one]	+ (+ means >1 uM)
Fc1ccn(-c2cc(N3CCOCC3)nc(NC3CCC(F)(F)CC3)n2)n1 [NSSy6468]	+ (+ means >1 uM)
COC(=O)N1CCC(O)(c2cc(NC3CCC(F)(F)CC3)nc(-n3ccc(C)n3)c2)C1 (centres unmarked) [IN11251-035-P1, methyl 3-(2-((4,4-difluorocyclohexyl)amino)-6-(3-methyl-1H-pyrazol-1-yl)pyridin-4-yl)-3-hydroxypyrrolidine-1-carboxylate]	++ (++ means 200 nM-1000 nM)
Cc1csc(-c2cc(N3CCN4C(=O)OC[C@@H]4C3)cc(NC3CCC(F)(F)CC3)n2)n1 [NSSy5837]	+++ (+++ means <200 nM)
COc1c(NC2CCC(F)(F)CC2)nc(-c2nc(C)cs2)n(CC#N)c1=O [IN11196-065-P1]	+ (+ means >1 uM)
COc1cnc(-n2ccc(C)n2)nc1NC1CCC(F)(F)CC1 [NSSy7055]	+ (+ means >1 uM)

The remaining lines, values ahead:

SC100 (μM)	Structure (SMILES)
++ (++ means 200 nM-1000 nM)	OCc1cc(NC2CCC(F)(F)CC2)nc(-n2ccc(C3CC3)n2)n1 [IN11137-074-P1, (2-(3-cyclopropyl-1H-pyrazol-1-yl)-6-((4,4-difluorocyclohexyl)amino)pyrimidin-4-yl) methanol]
++ (++ means 200 nM-1000 nM)	Cc1cc(C)n(-c2cc(Cc3ncco3)cc(NC3CCC(F)(F)CC3)n2)n1 [NSSy5645, N-(4,4-difluorocyclohexyl)-6-(3,5-dimethyl-1H-pyrazol-1-yl)-4-(oxazol-2-ylmethyl)pyridin-2-amine]
+ (+ means >1 uM)	Cc1csc(-c2nc(NC3CCC(F)(F)CC3)cc(C(C)n3cccn3)n2)n1 (centres unmarked) [IN11133-002-P1, 6-(1-(1H-pyrazol-1-yl)ethyl)-N-(4,4-difluorocyclohexyl)-2-(4-methylthiazol-2-yl)pyrimidin-4-amine]
++ (++ means 200 nM-1000 nM)	Cc1ccn(-c2nc(NC3CCC(F)(F)CC3)cc(OC3CC(O)C3)n2)n1 (centres unmarked) [NSSy5879, 3-((6-((4,4-difluorocyclohexyl)amino)-2-(3-methyl-1H-pyrazol-1-yl)pyrimidin-4-yl)oxy)cyclobutan-1-ol]
+++ (+++ means <200 nM)	Cc1csc(-c2nc(NC3CCC(F)(F)CC3)cc(N3CCN(C(C)C)CC3)n2)n1 [IN10864-031-P1]
++ (++ means 200 nM-1000 nM)	Cc1ccn(-c2cc(C(O)Cc3cn(C)nn3)cc(NC3CCC(F)(F)CC3)n2)n1 (centres unmarked) [NSSy7079, 1-(2-((4,4-difluorocyclohexyl)amino)-6-(3-methyl-1H-pyrazol-1-yl)pyridin-4-yl)-2-(1-methyl-1H-1,2,3-triazol-4-yl)ethan-1-ol]
+ (+ means >1 uM)	Cc1cc(C)n(-c2cc(C#N)nc(NC3CCC(F)(F)CC3)n2)n1 [NSSy6721, 2-((4,4-difluorocyclohexyl)amino)-6-(3,5-dimethyl-1H-pyrazol-1-yl)pyrimidine-4-carbonitrile]
++ (++ means 200 nM-1000 nM)	Cc1ccn(-c2cc(CN(C)C)cc(NC3CCC(F)(F)CC3)n2)n1 [IN11063-006-P1, N-(4,4-difluorocyclohexyl)-4-((dimethylamino)methyl)-6-(3-methyl-1H-pyrazol-1-yl)pyridin-2-amine]
++ (++ means 200 nM-1000 nM)	CC(O)c1cc(NC2CCC(F)(F)CC2)nc(-c2nc(C3CC3)cs2)n1 (centres unmarked) [IN11147-066-P1, 1-(2-(4-cyclopropylthiazol-2-yl)-6-((4,4-difluorocyclohexyl)amino)pyrimidin-4-yl) ethan-1-ol]
++ (++ means 200 nM-1000 nM)	Cc1cc(C)n(-c2cc(C(O)Cc3cnn(C)n3)cc(NC3CCC(F)(F)CC3)n2)n1 (centres unmarked) [NSSy7053, 1-(2-((4,4-difluorocyclohexyl)amino)-6-(3,5-dimethyl-1H-pyrazol-1-yl)pyridin-4-yl)-2-(2-methyl-2H-1,2,3-triazol-4-yl) ethan-1-ol]
